Source: patent US11702404B2, “GLP-1R modulating compounds” (priority 2019, dated 2023)

Each compound was assayed against GLP-1R (Homo sapiens, UniProt P43220) (assay: GLP-1R activation: cAMP increase in CHO cells stably expressing GLP-1R). Conditions: cAMP increase, CHO cells stably expressing GLP-1R, 10 point dose response, 30 minutes incubation; read-out: EC50.
Format: cell-based

GLP-1R, sequence (P43220 24-463): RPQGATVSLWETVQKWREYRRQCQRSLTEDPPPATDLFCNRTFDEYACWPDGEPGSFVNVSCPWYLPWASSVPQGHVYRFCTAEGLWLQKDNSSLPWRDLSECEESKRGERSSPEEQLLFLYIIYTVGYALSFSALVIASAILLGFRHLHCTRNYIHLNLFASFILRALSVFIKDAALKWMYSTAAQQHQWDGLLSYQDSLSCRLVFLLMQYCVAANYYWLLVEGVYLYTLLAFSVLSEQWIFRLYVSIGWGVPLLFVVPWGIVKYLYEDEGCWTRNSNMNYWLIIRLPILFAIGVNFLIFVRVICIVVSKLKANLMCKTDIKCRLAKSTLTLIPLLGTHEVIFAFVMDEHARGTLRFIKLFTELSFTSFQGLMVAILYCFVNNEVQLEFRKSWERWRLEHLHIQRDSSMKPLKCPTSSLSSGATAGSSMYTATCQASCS

| Structure (SMILES) | EC50 |
| --- | --- |
| COCCn1c(Cc2ccc(-c3cccc(OCC(=O)c4ccc(OC)cc4)n3)cc2F)nc2ccc(C(=O)O)cc21 [Example 215, 2-(2-fluoro-4-(6-(2-(4-methoxyphenyl)-2-oxoethoxy)pyridin-2-yl)benzyl)-1-(2-methoxyethyl)-1H-benzo[d]imidazole-6-carboxylic acid] | 62.7 nM |
| CC(C)(Cn1c(Cc2ccc(-c3cccc(OCc4ccc(C#N)cc4F)n3)cc2F)nc2ccc(C(=O)O)cc21)C(F)F [Example 12, 2-(4-(6-((4-cyano-2-fluorobenzyl)oxy)pyridin-2-yl)-2-fluorobenzyl)-1-(3,3-difluoro-2,2-dimethylpropyl)-1H-benzo[d]imidazole-6-carboxylic acid] | 1.77 nM |
| COCCn1c(Cc2ccc(-c3cccc(OCc4cccc5c4OCCN5C)n3)cc2F)nc2ccc(C(=O)O)cc21 [Example 149, 2-(2-fluoro-4-(6-((4-methyl-3,4-dihydro-2H-benzo[b][1,4]oxazin-8-yl)methoxy)pyridin-2-yl)benzyl)-1-(2-methoxyethyl)-1H-benzo[d]imidazole-6-carboxylic acid] | 2040 nM |
| COCCn1c(Cc2ccc(-c3cccc(OCc4nnc(Cl)s4)n3)cc2F)nc2ccc(C(=O)O)cc21 [Example 590, 2-(4-(6-((5-chloro-1,3,4-thiadiazol-2-yl)methoxy)pyridin-2-yl)-2-fluorobenzyl)-1-(2-methoxyethyl)-1H-benzo[d]imidazole-6-carboxylic acid] | 3190 nM |
| COCCn1c(Cc2ccc(-c3cccc(OCc4ccc(C(F)F)cc4F)n3)cc2F)nc2ccc(C(=O)O)cc21 [Example 150, 2-(4-(6-((4-(difluoromethyl)-2-fluorobenzyl)oxy)pyridin-2-yl)-2-fluorobenzyl)-1-(2-methoxyethyl)-1H-benzo[d]imidazole-6-carboxylic acid] | 3.35 nM |
| COCCn1c(Cc2cc(F)c(-c3cccc(OCc4ccc(C#N)cc4F)n3)c(F)c2F)nc2ccc(C(=O)O)cc21 [Example 856, 2-(4-(6-((4-cyano-2-fluorobenzyl)oxy)pyridin-2-yl)-2,3,5-trifluorobenzyl)-1-(2-methoxyethyl)-1H-benzo[d]imidazole-6-carboxylic acid] | 4.55 nM |
| COCCn1c(Cc2ccc(-c3cccnc3OCc3ccccc3)cc2F)nc2ccc(C(=O)O)cc21 [Example 183, 2-(4-(2-(benzyloxy)pyridin-3-yl)-2-fluorobenzyl)-1-(2-methoxyethyl)-1H-benzo[d]imidazole-carboxylic acid] | 3960 nM |
| COCCn1c(Cc2cc(F)c(-c3cccc(OCc4ccc(C(F)(F)F)s4)n3)cc2F)nc2ccc(C(=O)O)cc21 [Example 864] | 3.71 nM |
| CC(C)(CF)Cn1c(Cc2ccc(-c3cccc(OCc4ccc(C#N)cc4F)n3)cc2F)nc2ccc(C(=O)O)cc21 [Example 11, 2-(4-(6-((4-cyano-2-fluorobenzyl)oxy)pyridin-2-yl)-2-fluorobenzyl)-1-(3-fluoro-2,2-dimethylpropyl)-1H-benzo[d]imidazole-6-carboxylic acid] | 2.7 nM |
| COCCn1c(Cc2ccc(-c3cccc(OCc4ccc(C#N)c5c4OCCC5)n3)cc2F)nc2ccc(C(=O)O)cc21 [Example 144, 2-(4-(6-((5-cyanochroman-8-yl)methoxy)pyridin-2-yl)-2-fluorobenzyl)-1-(2-methoxyethyl)-1H-benzo[d]imidazole-6-carboxylic acid] | 20.7 nM |
| NC(=O)c1ccc(COc2cc(-c3ccc(Cc4nc5ccc(C(=O)O)cc5[nH]4)c(F)c3)ccc2F)c(F)c1 [Example 469, 2-((3′-((4-carbamoyl-2-fluorobenzyl)oxy)-3,4′-difluoro-[1,1′-biphenyl]-4-yl)methyl)-1H-benzo[d]imidazole-6-carboxylic acid] | ≥ 1000 nM |
| N#Cc1ccc(COc2nccc(-c3ccc(Cc4nc5c(F)cc(C(=O)O)cc5n4Cc4ncco4)cc3F)n2)c(F)c1 [Example 618] | 1.48 nM |
| CC12COC(Cn3c(Cc4cc(F)c(-c5cccc(OCc6ccc(C#N)cc6F)n5)cc4F)nc4ccc(C(=O)O)cc43)(C1)C2 [Example 741] | 22.6 nM |
